Source: ChEMBL document CHEMBL4507300 (2021)

What was measured:
[1] = biological target: Cyclin-dependent kinase 8 (Homo sapiens) (UniProt P49336); conditions: Compound concentration 1000.0 nM
[2] = system: Phosphatidylinositol 4,5-bisphosphate 3-kinase catalytic subunit alpha isoform (Homo sapiens), P42336 [H1047L]; conditions: Compound concentration 1000.0 nM
[3] = biological target: Tyrosine-protein kinase HCK (Homo sapiens) (UniProt P08631); conditions: Compound concentration 1000.0 nM
[4] = biological target: Calcium/calmodulin-dependent protein kinase type IV (Homo sapiens) (UniProt Q16566); conditions: Compound concentration 1000.0 nM
[5] = biological target: Serine/threonine-protein kinase WNK2 (Homo sapiens) (UniProt Q9Y3S1); conditions: Compound concentration 1000.0 nM
[6] = biological target: Tyrosine-protein kinase receptor UFO (Homo sapiens) (UniProt P30530); conditions: Compound concentration 1000.0 nM
[7] = biological target: Alpha-1B adrenergic receptor (Homo sapiens) (UniProt P35368); conditions: Compound concentration 10.0 uM
Sequence of Alpha-1B adrenergic receptor (Homo sapiens) (P35368 whole entry): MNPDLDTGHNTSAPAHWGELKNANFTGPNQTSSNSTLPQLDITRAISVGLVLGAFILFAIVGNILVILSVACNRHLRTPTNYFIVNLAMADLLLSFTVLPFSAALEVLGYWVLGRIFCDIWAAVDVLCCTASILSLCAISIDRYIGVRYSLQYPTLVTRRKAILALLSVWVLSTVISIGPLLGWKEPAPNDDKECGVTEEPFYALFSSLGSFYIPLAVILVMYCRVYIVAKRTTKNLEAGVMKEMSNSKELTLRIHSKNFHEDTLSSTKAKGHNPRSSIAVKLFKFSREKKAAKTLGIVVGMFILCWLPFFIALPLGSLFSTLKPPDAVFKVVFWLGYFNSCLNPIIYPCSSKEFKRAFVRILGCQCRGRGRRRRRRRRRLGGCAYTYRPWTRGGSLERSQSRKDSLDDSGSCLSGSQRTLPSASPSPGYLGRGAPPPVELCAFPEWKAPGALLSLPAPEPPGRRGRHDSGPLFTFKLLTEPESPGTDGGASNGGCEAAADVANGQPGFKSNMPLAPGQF

[8] = biological target: Glycogen synthase kinase-3 alpha (Homo sapiens) (UniProt P49840); conditions: Compound concentration 1000.0 nM
[9] = system: Phosphatidylinositol 4,5-bisphosphate 3-kinase catalytic subunit alpha isoform (Homo sapiens), P42336 [Q546K]; conditions: Compound concentration 1000.0 nM
[10] = biological target: cAMP-dependent protein kinase catalytic subunit alpha (Homo sapiens) (UniProt P17612); conditions: Compound concentration 1000.0 nM
[11] = biological target: Protein kinase C iota type (Homo sapiens) (UniProt P41743); conditions: Compound concentration 1000.0 nM
[12] = biological target: Histamine H2 receptor (Homo sapiens) (UniProt P25021); conditions: Compound concentration 10.0 uM
Rattus norvegicus = organism: Rattus norvegicus; conditions: Compound concentration 10.0 uM
[13] = biological target: Wee1-like protein kinase (Homo sapiens) (UniProt P30291); conditions: Compound concentration 1000.0 nM
[14] = biological target: Interleukin-1 receptor-associated kinase 4 (Homo sapiens) (UniProt Q9NWZ3); conditions: Compound concentration 1000.0 nM
[15] = biological target: Serine/threonine-protein kinase DCLK1 (Homo sapiens) (UniProt O15075); conditions: Compound concentration 1000.0 nM
[16] = biological target: Inhibitor of nuclear factor kappa-B kinase subunit beta (Homo sapiens) (UniProt O14920); conditions: Compound concentration 1000.0 nM
[17] = biological target: SNF-related serine/threonine-protein kinase (Homo sapiens) (UniProt Q9NRH2); conditions: Compound concentration 1000.0 nM
[18] = biological target: Serine/threonine-protein kinase Nek2 (Homo sapiens) (UniProt P51955); conditions: Compound concentration 1000.0 nM
[19] = biological target: Bone morphogenetic protein receptor type-1A (Homo sapiens) (UniProt P36894); conditions: Compound concentration 1000.0 nM
[20] = biological target: Tyrosine-protein kinase receptor TYRO3 (Homo sapiens) (UniProt Q06418); conditions: Compound concentration 1000.0 nM
Sequence of Tyrosine-protein kinase receptor TYRO3 (Homo sapiens) (Q06418 whole entry): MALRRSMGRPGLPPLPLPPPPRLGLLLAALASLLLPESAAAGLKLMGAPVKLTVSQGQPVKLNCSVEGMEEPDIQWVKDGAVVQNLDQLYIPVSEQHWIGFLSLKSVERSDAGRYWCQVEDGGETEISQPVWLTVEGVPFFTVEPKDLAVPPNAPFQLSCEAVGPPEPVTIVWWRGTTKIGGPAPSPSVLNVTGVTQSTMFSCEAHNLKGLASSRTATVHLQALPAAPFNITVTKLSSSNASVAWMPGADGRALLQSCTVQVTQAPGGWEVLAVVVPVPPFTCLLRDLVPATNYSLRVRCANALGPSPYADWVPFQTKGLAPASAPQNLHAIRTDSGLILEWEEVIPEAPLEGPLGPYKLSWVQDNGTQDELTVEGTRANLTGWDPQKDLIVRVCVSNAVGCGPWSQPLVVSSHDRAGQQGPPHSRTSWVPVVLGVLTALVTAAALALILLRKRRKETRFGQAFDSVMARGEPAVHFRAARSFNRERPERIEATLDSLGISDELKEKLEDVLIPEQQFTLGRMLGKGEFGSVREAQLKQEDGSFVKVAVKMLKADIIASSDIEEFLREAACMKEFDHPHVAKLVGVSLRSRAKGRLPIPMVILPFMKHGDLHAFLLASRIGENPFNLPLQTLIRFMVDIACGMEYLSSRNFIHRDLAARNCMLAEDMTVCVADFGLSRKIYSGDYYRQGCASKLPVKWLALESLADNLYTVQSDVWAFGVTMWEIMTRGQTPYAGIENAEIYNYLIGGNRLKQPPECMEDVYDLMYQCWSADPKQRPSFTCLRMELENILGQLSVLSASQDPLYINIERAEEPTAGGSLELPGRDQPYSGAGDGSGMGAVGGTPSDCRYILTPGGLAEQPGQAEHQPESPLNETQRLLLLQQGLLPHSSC

[21] = biological target: Kappa-type opioid receptor (Homo sapiens) (UniProt P41145); conditions: Compound concentration 10.0 uM
[22] = biological target: Tyrosine-protein kinase CSK (Homo sapiens) (UniProt P41240); conditions: Compound concentration 1000.0 nM
[23] = biological target: Serine/threonine-protein kinase mTOR (Homo sapiens) (UniProt P42345); conditions: Compound concentration 1000.0 nM
[24] = biological target: Insulin receptor (Homo sapiens) (UniProt P06213); conditions: Compound concentration 1000.0 nM
[25] = system: Epidermal growth factor receptor (Homo sapiens), P00533 [UNDEFINED MUTATION]; conditions: Compound concentration 1000.0 nM
[26] = biological target: Non-receptor tyrosine-protein kinase TYK2 (Homo sapiens) (UniProt P29597); conditions: Compound concentration 1000.0 nM
Sequence of Non-receptor tyrosine-protein kinase TYK2 (Homo sapiens) (P29597 whole entry): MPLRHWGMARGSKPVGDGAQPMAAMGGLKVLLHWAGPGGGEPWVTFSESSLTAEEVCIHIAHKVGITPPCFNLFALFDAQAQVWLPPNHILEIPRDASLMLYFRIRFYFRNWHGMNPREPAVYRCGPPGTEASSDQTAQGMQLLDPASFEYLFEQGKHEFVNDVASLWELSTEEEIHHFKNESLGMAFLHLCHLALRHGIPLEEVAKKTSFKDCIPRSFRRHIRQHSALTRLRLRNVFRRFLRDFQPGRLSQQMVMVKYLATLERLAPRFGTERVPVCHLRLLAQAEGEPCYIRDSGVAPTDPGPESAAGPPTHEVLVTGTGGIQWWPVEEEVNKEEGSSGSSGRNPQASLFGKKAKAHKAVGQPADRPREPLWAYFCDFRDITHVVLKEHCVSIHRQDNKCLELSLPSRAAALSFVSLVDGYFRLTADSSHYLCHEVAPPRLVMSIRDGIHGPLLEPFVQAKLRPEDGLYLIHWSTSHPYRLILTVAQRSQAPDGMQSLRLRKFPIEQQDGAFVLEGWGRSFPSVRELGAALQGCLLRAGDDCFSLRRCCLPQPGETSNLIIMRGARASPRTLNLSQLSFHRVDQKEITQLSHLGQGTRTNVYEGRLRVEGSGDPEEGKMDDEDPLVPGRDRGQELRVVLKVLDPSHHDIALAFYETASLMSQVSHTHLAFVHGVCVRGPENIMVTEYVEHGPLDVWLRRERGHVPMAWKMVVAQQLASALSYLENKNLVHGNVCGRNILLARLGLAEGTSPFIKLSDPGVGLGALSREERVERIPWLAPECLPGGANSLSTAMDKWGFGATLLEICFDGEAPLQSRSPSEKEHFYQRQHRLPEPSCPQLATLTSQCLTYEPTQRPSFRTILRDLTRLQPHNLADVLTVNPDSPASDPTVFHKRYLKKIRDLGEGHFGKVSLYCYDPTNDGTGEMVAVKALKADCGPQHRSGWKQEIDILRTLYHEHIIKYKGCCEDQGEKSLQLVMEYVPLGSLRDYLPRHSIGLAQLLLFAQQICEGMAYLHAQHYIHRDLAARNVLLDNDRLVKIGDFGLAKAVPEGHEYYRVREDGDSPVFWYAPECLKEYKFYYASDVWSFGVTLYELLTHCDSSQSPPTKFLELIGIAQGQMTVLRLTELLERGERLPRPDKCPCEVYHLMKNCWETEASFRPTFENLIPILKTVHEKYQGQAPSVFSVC

[27] = biological target: Tyrosine-protein kinase Srms (Homo sapiens) (UniProt Q9H3Y6); conditions: Compound concentration 1000.0 nM
[28] = biological target: Dual specificity protein kinase CLK4 (Homo sapiens) (UniProt Q9HAZ1); conditions: Compound concentration 1000.0 nM
[29] = biological target: Tyrosine-protein kinase FRK (Homo sapiens) (UniProt P42685); conditions: Compound concentration 1000.0 nM
Sequence of Tyrosine-protein kinase FRK (Homo sapiens) (P42685 whole entry): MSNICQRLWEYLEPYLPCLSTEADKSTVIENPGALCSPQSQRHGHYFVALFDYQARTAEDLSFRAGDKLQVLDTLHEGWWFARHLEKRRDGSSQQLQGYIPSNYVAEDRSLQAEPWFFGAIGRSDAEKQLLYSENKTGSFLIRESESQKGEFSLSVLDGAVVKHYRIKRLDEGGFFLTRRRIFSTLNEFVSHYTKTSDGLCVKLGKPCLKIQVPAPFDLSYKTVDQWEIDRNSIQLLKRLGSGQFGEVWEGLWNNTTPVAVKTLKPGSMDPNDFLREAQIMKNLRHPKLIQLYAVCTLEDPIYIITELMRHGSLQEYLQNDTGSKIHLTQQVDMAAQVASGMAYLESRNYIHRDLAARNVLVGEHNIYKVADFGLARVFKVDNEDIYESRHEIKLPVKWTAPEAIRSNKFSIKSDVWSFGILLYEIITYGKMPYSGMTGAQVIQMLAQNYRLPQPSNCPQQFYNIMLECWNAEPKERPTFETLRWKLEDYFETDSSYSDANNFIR

[30] = biological target: 3-phosphoinositide-dependent protein kinase 1 (Homo sapiens) (UniProt O15530); conditions: Compound concentration 1000.0 nM
Sequence of 3-phosphoinositide-dependent protein kinase 1 (Homo sapiens) (O15530 whole entry): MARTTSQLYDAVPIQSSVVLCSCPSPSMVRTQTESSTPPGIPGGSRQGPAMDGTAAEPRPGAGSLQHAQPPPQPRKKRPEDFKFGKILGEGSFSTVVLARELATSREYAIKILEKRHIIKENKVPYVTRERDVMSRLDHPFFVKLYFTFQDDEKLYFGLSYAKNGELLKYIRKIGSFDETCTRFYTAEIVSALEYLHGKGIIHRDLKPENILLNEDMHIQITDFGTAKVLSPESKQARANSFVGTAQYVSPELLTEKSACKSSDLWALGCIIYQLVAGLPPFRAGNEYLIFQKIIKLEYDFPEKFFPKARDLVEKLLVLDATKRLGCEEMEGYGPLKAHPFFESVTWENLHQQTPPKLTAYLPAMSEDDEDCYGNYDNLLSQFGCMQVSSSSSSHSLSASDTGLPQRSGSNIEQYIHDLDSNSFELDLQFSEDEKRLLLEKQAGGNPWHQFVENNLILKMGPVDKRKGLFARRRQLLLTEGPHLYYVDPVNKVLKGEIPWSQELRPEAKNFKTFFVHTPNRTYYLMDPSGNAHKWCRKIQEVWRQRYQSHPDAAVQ

[31] = biological target: Serine/threonine-protein kinase 16 (Homo sapiens) (UniProt O75716); conditions: Compound concentration 1000.0 nM
[32] = biological target: Macrophage-stimulating protein receptor (Homo sapiens) (UniProt Q04912); conditions: Compound concentration 1000.0 nM
Sequence of Macrophage-stimulating protein receptor (Homo sapiens) (Q04912 25-304 limits assumed): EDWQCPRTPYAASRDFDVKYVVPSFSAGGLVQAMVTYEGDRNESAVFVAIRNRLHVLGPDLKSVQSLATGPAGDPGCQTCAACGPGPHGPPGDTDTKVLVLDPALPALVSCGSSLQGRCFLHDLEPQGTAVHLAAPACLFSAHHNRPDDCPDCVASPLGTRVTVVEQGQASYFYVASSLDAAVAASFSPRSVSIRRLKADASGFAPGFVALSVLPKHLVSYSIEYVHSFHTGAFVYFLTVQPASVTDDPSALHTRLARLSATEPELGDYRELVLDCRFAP
Sequence of Macrophage-stimulating protein receptor (Homo sapiens) (Q04912 310-1400 limits assumed): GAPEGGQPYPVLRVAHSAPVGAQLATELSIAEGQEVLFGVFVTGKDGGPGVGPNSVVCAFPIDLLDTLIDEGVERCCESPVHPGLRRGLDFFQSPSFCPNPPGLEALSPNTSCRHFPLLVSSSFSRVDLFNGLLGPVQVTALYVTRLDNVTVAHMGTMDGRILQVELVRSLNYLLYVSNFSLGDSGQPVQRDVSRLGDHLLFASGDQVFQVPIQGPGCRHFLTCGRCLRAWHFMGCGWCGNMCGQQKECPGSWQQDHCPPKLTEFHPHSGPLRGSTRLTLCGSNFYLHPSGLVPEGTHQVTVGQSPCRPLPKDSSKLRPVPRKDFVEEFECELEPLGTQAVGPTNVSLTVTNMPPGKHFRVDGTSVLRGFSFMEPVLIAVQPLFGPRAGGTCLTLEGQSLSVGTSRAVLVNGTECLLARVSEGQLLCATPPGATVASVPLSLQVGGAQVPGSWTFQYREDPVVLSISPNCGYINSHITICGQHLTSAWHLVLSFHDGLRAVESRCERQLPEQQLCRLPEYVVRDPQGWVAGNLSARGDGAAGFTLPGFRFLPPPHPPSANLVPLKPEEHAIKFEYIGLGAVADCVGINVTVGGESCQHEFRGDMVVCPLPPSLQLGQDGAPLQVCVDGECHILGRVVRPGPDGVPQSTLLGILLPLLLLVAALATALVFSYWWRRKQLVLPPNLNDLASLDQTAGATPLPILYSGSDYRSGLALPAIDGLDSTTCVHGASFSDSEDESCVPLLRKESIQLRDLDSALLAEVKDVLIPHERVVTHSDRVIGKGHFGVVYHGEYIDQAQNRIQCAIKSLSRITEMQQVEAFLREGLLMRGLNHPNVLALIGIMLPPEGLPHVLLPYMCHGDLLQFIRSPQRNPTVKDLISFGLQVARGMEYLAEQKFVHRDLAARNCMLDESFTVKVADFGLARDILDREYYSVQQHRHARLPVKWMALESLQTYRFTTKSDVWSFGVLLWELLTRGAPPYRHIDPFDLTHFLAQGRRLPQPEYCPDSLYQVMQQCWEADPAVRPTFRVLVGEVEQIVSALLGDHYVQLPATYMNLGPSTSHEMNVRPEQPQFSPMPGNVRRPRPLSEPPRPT

[33] = biological target: 5'-AMP-activated protein kinase catalytic subunit alpha-2 (Homo sapiens) (UniProt P54646); conditions: Compound concentration 1000.0 nM
[34] = biological target: Homeodomain-interacting protein kinase 3 (Homo sapiens) (UniProt Q9H422); conditions: Compound concentration 1000.0 nM
[35] = biological target: Mitogen-activated protein kinase kinase kinase 11 (Homo sapiens) (UniProt Q16584); conditions: Compound concentration 1000.0 nM
[36] = biological target: Non-receptor tyrosine-protein kinase TNK1 (Homo sapiens) (UniProt Q13470); conditions: Compound concentration 1000.0 nM
[37] = biological target: Vascular endothelial growth factor receptor 1 (Homo sapiens) (UniProt P17948); conditions: Compound concentration 1000.0 nM
[38] = biological target: Testis-specific serine/threonine-protein kinase 1 (Homo sapiens) (UniProt Q9BXA7); conditions: Compound concentration 1000.0 nM
[39] = biological target: Serine/threonine-protein kinase SIK3 (Homo sapiens) (UniProt Q9Y2K2); conditions: Compound concentration 1000.0 nM
[40] = biological target: Ephrin type-A receptor 6 (Homo sapiens) (UniProt Q9UF33); conditions: Compound concentration 1000.0 nM
[41] = biological target: Mu-type opioid receptor (Homo sapiens) (UniProt P35372); conditions: Compound concentration 10.0 uM
[42] = biological target: Serine/threonine-protein kinase PknB (Mycobacterium tuberculosis) (UniProt P9WI81); conditions: Compound concentration 1000.0 nM
[43] = biological target: Serine/threonine-protein kinase LATS1 (Homo sapiens) (UniProt O95835); conditions: Compound concentration 1000.0 nM
[44] = biological target: Microtubule-associated serine/threonine-protein kinase 1 (Homo sapiens) (UniProt Q9Y2H9); conditions: Compound concentration 1000.0 nM

COc1cccc(CNC(=O)c2nc3scc(COCc4ccc(C(=O)O)cc4)c3c(=O)[nH]2)c1 [T-26c]
inactive: residual activity [1] 73.4% | residual activity [2] 100% | residual activity [3] 79.7% | residual activity [4] 100% | residual activity [5] 54.2% | residual activity [6] 84.2% | inhibition [7] 7.58% | residual activity [8] 100% | residual activity [9] 70.4% | residual activity [10] 100% | residual activity [11] 100% | inhibition [12] 28.4% | inhibition (Rattus norvegicus) 3.29% | residual activity [13] 95.7% | residual activity [14] 85% | residual activity [15] 60.4% | residual activity [16] 73.2% | residual activity [17] 89.2% | residual activity [18] 100% | residual activity [19] 100% | residual activity [20] 100% | inhibition [21] 8.18% | residual activity [22] 100% | residual activity [23] 100% | residual activity [24] 76.2% | residual activity [25] 98.7% | residual activity [26] 79.8% | residual activity [27] 78.3% | residual activity [28] 94.4% | residual activity [29] 83.7% | residual activity [30] 87.8% | residual activity [31] 87.2% | residual activity [32] 81.9% | residual activity [33] 70.5% | residual activity [34] 73.7% | residual activity [35] 100% | residual activity [36] 100% | residual activity [37] 93.9% | residual activity [38] 88.2% | residual activity [39] 63.5% | residual activity [40] 85.4% | inhibition [41] -3.34% | residual activity [42] 93% | residual activity [43] 100% | residual activity [44] 84.4%
